Activity calls are given as the source filed them. No cut-off for these calls is given here.
Test system: not listed separately
Experiment: Electrochemical behavior of the compound assessed as redox potential corrected toward saturated Ag/AgCl reference electrode by cyclic voltammetry
Details: not given
`CS(=O)(=O)[O-].O=C(/C=C/c1cc(O)c(O)c(O)c1)NCCCCCC[P+](c1ccccc1)(c1ccccc1)c1ccccc1` gave an Activity of 34 mV.
Compound `CS(=O)(=O)[O-].O=C(Cc1ccc(O)c(O)c1)NCCCCCCCCCC[P+](c1ccccc1)(c1ccccc1)c1ccccc1` has an Activity of 122 mV.
Compound `CS(=O)(=O)[O-].O=C(/C=C/c1ccc(O)c(O)c1)NCCCCCCCCCC[P+](c1ccccc1)(c1ccccc1)c1ccccc1` has an Activity of 174 mV.

Test system: not listed separately
Experiment: Cytotoxicity against human SH-SY5Y cells assessed as cell metabolic activity at 10 uM incubated for 24 hrs by MTT assay relative to control
Format: ADME, cell-based
Details: read-out: Activity
With `CS(=O)(=O)[O-].O=C(/C=C/c1cc(O)c(O)c(O)c1)NCCCCCC[P+](c1ccccc1)(c1ccccc1)c1ccccc1` the viability at 24 h, 10 µM was 104%.
`CS(=O)(=O)[O-].O=C(Cc1ccc(O)c(O)c1)NCCCCCCCCCC[P+](c1ccccc1)(c1ccccc1)c1ccccc1` gave a viability at 24 h, 10 µM of 94.5%.
Compound `CS(=O)(=O)[O-].O=C(/C=C/c1ccc(O)c(O)c1)NCCCCCCCCCC[P+](c1ccccc1)(c1ccccc1)c1ccccc1` has a viability at 24 h, 10 µM of 104%.

Test system: not listed separately
Experiment: Antioxidant activity assessed as DPPH radical scavenging activity measured after 45 mins by UV-Visible spectrophotometric based assay
Format: functional
Details: not given
With `CS(=O)(=O)[O-].O=C(/C=C/c1cc(O)c(O)c(O)c1)NCCCCCC[P+](c1ccccc1)(c1ccccc1)c1ccccc1` the IC50 was 19 µM.
For `CS(=O)(=O)[O-].O=C(Cc1ccc(O)c(O)c1)NCCCCCCCCCC[P+](c1ccccc1)(c1ccccc1)c1ccccc1`, the IC50 was 56.4 µM.
`CS(=O)(=O)[O-].O=C(/C=C/c1ccc(O)c(O)c1)NCCCCCCCCCC[P+](c1ccccc1)(c1ccccc1)c1ccccc1` gave an IC50 of 25.9 µM.

Test system: SH-SY5Y
Experiment: Neuroprotective activity against TBHP-induced oxidative damage in human SH-SY5Y cells assessed as increase in cell viability at 50 uM pretreated for 24 hrs followed by TBHP stimulation measured after 4 hrs by MTT assay relative to control
Format: functional
Details: not given
In the case of `CS(=O)(=O)[O-].O=C(/C=C/c1cc(O)c(O)c(O)c1)NCCCCCC[P+](c1ccccc1)(c1ccccc1)c1ccccc1`, the Activity is reported as “inactive”.
For `CS(=O)(=O)[O-].O=C(Cc1ccc(O)c(O)c1)NCCCCCCCCCC[P+](c1ccccc1)(c1ccccc1)c1ccccc1`, the Activity was “inactive”.
In the case of `CS(=O)(=O)[O-].O=C(/C=C/c1ccc(O)c(O)c1)NCCCCCCCCCC[P+](c1ccccc1)(c1ccccc1)c1ccccc1`, the Activity is reported as “inactive”.

Test system: HepG2
Experiment: Cytotoxicity against human HepG2 cells assessed as reduction in cell viability incubated for 48 hrs by resazurin assay relative to control
Format: cell-based
Details: hepg2, 48 h
For `CS(=O)(=O)[O-].O=C(Cc1ccc(O)c(O)c1)NCCCCCCCCCC[P+](c1ccccc1)(c1ccccc1)c1ccccc1`, the Activity was “Dose-dependent effect”.
In the case of `CS(=O)(=O)[O-].O=C(/C=C/c1ccc(O)c(O)c1)NCCCCCCCCCC[P+](c1ccccc1)(c1ccccc1)c1ccccc1`, the Activity is reported as “Dose-dependent effect”.

Test system: not listed separately
Experiment: Electrochemical behavior of the compound assessed as redox potential corrected toward saturated Ag/AgCl reference electrode by differential pulse voltammetry
Details: not given
Work on `CS(=O)(=O)[O-].O=C(/C=C/c1cc(O)c(O)c(O)c1)NCCCCCC[P+](c1ccccc1)(c1ccccc1)c1ccccc1` yielded an Activity of 709 mV.
In the case of `CS(=O)(=O)[O-].O=C(Cc1ccc(O)c(O)c1)NCCCCCCCCCC[P+](c1ccccc1)(c1ccccc1)c1ccccc1`, the Activity is reported as 122 mV.
Work on `CS(=O)(=O)[O-].O=C(/C=C/c1ccc(O)c(O)c1)NCCCCCCCCCC[P+](c1ccccc1)(c1ccccc1)c1ccccc1` yielded an Activity of 174 mV.

Test system: SH-SY5Y
Experiment: Neuroprotective activity against TBHP-induced oxidative damage in human SH-SY5Y cells assessed as increase in cell viability at 10 uM pretreated for 24 hrs followed by TBHP stimulation measured after 4 hrs by MTT assay relative to control
Format: functional, cell-based
Details: not given
In the case of `CS(=O)(=O)[O-].O=C(/C=C/c1cc(O)c(O)c(O)c1)NCCCCCC[P+](c1ccccc1)(c1ccccc1)c1ccccc1`, the Activity is reported as “inactive”.
For `CS(=O)(=O)[O-].O=C(Cc1ccc(O)c(O)c1)NCCCCCCCCCC[P+](c1ccccc1)(c1ccccc1)c1ccccc1`, the Activity was “inactive”.
For `CS(=O)(=O)[O-].O=C(/C=C/c1ccc(O)c(O)c1)NCCCCCCCCCC[P+](c1ccccc1)(c1ccccc1)c1ccccc1`, the Activity was “inactive”.

Test system: not listed separately
Experiment: Antioxidant activity assessed as ABTS radical scavenging activity measured after 15 mins by UV-Visible spectrophotometric based assay
Format: functional
Details: not given
Work on `CS(=O)(=O)[O-].O=C(/C=C/c1cc(O)c(O)c(O)c1)NCCCCCC[P+](c1ccccc1)(c1ccccc1)c1ccccc1` yielded an IC50 of 12.2 µM.
`CS(=O)(=O)[O-].O=C(Cc1ccc(O)c(O)c1)NCCCCCCCCCC[P+](c1ccccc1)(c1ccccc1)c1ccccc1` gave an IC50 of 28.1 µM.
Compound `CS(=O)(=O)[O-].O=C(/C=C/c1ccc(O)c(O)c1)NCCCCCCCCCC[P+](c1ccccc1)(c1ccccc1)c1ccccc1` has an IC50 of 23.5 µM.

Test system: SH-SY5Y
Experiment: Neuroprotective activity against 6-OHDA-induced toxicity in human SH-SY5Y cells assessed as reduction in cell damage at 10 uM pretreated for 24 hrs followed by 6-OHDA challenge and measured after 24 hrs by MTT assay relative to control
Format: functional
Set-up: scale not given: the % may be the effect or the level left
Details: not given
In the case of `CS(=O)(=O)[O-].O=C(/C=C/c1cc(O)c(O)c(O)c1)NCCCCCC[P+](c1ccccc1)(c1ccccc1)c1ccccc1`, the Activity is reported as 19.8%.

Test system: not listed separately
Experiment: Metal chelating activity assessed as compound-Fe2+ complex formation at 100 uM incubated for 10 mins by ferrozine spectrophotometric assay
Details: not given
`CS(=O)(=O)[O-].O=C(/C=C/c1cc(O)c(O)c(O)c1)NCCCCCC[P+](c1ccccc1)(c1ccccc1)c1ccccc1` showed an Activity of over 80%.
Work on `CS(=O)(=O)[O-].O=C(Cc1ccc(O)c(O)c1)NCCCCCCCCCC[P+](c1ccccc1)(c1ccccc1)c1ccccc1` yielded an Activity of over 80%.
`CS(=O)(=O)[O-].O=C(/C=C/c1ccc(O)c(O)c1)NCCCCCCCCCC[P+](c1ccccc1)(c1ccccc1)c1ccccc1` gave an Activity of over 80%.

Test system: not listed separately
Experiment: Cytotoxicity against human SH-SY5Y cells assessed as cell metabolic activity at 50 uM incubated for 24 hrs by MTT assay relative to control
Format: ADME, cell-based
Details: read-out: Activity
`CS(=O)(=O)[O-].O=C(/C=C/c1cc(O)c(O)c(O)c1)NCCCCCC[P+](c1ccccc1)(c1ccccc1)c1ccccc1` gave a viability at 24 h, 50 µM of 94%.
With `CS(=O)(=O)[O-].O=C(Cc1ccc(O)c(O)c1)NCCCCCCCCCC[P+](c1ccccc1)(c1ccccc1)c1ccccc1` the viability at 24 h, 50 µM was 85.7%.
Compound `CS(=O)(=O)[O-].O=C(/C=C/c1ccc(O)c(O)c1)NCCCCCCCCCC[P+](c1ccccc1)(c1ccccc1)c1ccccc1` has a viability at 24 h, 50 µM of 15.9%.

Test system: SH-SY5Y
Experiment: Neuroprotective activity against 6-OHDA-induced toxicity in human SH-SY5Y cells assessed as reduction in cell damage at 10 to 50 uM pretreated for 24 hrs followed by 6-OHDA challenge and measured after 24 hrs by MTT assay relative to control
Format: functional
Details: not given
For `CS(=O)(=O)[O-].O=C(/C=C/c1ccc(O)c(O)c1)NCCCCCCCCCC[P+](c1ccccc1)(c1ccccc1)c1ccccc1`, the Activity was “inactive”.

Test system: SH-SY5Y
Experiment: Cytotoxicity against human SH-SY5Y cells assessed as reduction in cell viability incubated for 24 hrs by MTT assay relative to control
Format: cell-based
Details: not given
For `CS(=O)(=O)[O-].O=C(Cc1ccc(O)c(O)c1)NCCCCCCCCCC[P+](c1ccccc1)(c1ccccc1)c1ccccc1`, the Activity was “Dose-dependent effect”.
For `CS(=O)(=O)[O-].O=C(/C=C/c1ccc(O)c(O)c1)NCCCCCCCCCC[P+](c1ccccc1)(c1ccccc1)c1ccccc1`, the Activity was “Dose-dependent effect”.

Test system: not listed separately
Experiment: Cytotoxicity against human HepG2 cells assessed as cell metabolic activity at 10 uM incubated for 48 hrs by resazurin assay relative to control
Format: ADME, cell-based
Details: read-out: Activity
In the case of `CS(=O)(=O)[O-].O=C(/C=C/c1cc(O)c(O)c(O)c1)NCCCCCC[P+](c1ccccc1)(c1ccccc1)c1ccccc1`, the viability at 48 h, 10 µM is reported as 105%.
For `CS(=O)(=O)[O-].O=C(Cc1ccc(O)c(O)c1)NCCCCCCCCCC[P+](c1ccccc1)(c1ccccc1)c1ccccc1`, the viability at 48 h, 10 µM was 85.2%.
Work on `CS(=O)(=O)[O-].O=C(/C=C/c1ccc(O)c(O)c1)NCCCCCCCCCC[P+](c1ccccc1)(c1ccccc1)c1ccccc1` yielded a viability at 48 h, 10 µM of 9.19%.

Test system: SH-SY5Y
Experiment: Cytotoxicity against human SH-SY5Y cells assessed as reduction in cell viability at 10 uM incubated for 24 hrs by MTT assay relative to control
Format: cell-based
Details: not given
With `CS(=O)(=O)[O-].O=C(/C=C/c1ccc(O)c(O)c1)NCCCCCCCCCC[P+](c1ccccc1)(c1ccccc1)c1ccccc1` the Activity was under 45%.

Test system: SH-SY5Y
Experiment: Induction of ROS generation in human SH-SY5Y cells at 50 uM incubated for 24 hrs by DCFH-DA probe based fluorescence assay relative to control
Format: functional
Details: not given
With `CS(=O)(=O)[O-].O=C(/C=C/c1cc(O)c(O)c(O)c1)NCCCCCC[P+](c1ccccc1)(c1ccccc1)c1ccccc1` the Activity was “Active”.
For `CS(=O)(=O)[O-].O=C(Cc1ccc(O)c(O)c1)NCCCCCCCCCC[P+](c1ccccc1)(c1ccccc1)c1ccccc1`, the Activity was 103.4%.
`CS(=O)(=O)[O-].O=C(/C=C/c1ccc(O)c(O)c1)NCCCCCCCCCC[P+](c1ccccc1)(c1ccccc1)c1ccccc1` gave an Activity of 132.5%.

Test system: not listed separately
Experiment: Cytotoxicity against human HepG2 cells assessed as cell metabolic activity at 50 uM incubated for 48 hrs by resazurin assay relative to control
Format: ADME, cell-based
Details: read-out: Activity
In the case of `CS(=O)(=O)[O-].O=C(/C=C/c1cc(O)c(O)c(O)c1)NCCCCCC[P+](c1ccccc1)(c1ccccc1)c1ccccc1`, the viability at 48 h, 50 µM is reported as 94.7%.
`CS(=O)(=O)[O-].O=C(Cc1ccc(O)c(O)c1)NCCCCCCCCCC[P+](c1ccccc1)(c1ccccc1)c1ccccc1` showed a viability at 48 h, 50 µM of 10.7%.
With `CS(=O)(=O)[O-].O=C(/C=C/c1ccc(O)c(O)c1)NCCCCCCCCCC[P+](c1ccccc1)(c1ccccc1)c1ccccc1` the viability at 48 h, 50 µM was 8.24%.
